Test results from US10206394B2, “Herbicidal compounds” (Syngenta Participations AG, priority 2014, dated 2019).
Read-outs that look alike come from different tables or passages of the source.

Columns and labels:
Experiment in all cases: Glasshouse assay for herbicidal activity (pre- and post-emergence), percentage phytotoxicity
Assay type in all cases: in vivo
Avena fatua (AVEFA) = settings: Avena fatua
Outline: (§1)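 Herbicide was applied to potted plants sown in standard soil, one day after sowing for PRE and after about 12 days for POST. Visual percentage damage ratings followed at 15 DAA (POST) and 20 DAA (PRE).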

[1] = system: Alopecurus myosuroides (ALOMY); settings: Alopecurus myosuroides
Outline: as §1

[2] = system: Echinochloa crus-galli (ECHCG); settings: Echinochloa crus-galli
Outline: as §1

Lolium perenne (LOLPE) = settings: Lolium perenne
Outline: as §1

[3] = post-emergence, 360 h, Rate 250 g/ha, post-emergence, assessed visually 15 DAA, 100%=total damage, 0%=no damage, read-out: Post-emergence herbicidal activity (percentage phytotoxicity) AVEFA POST
[4] = pre-emergence, 480 h, Rate 250 g/ha, pre-emergence, assessed visually 20 DAA, 100%=total damage, 0%=no damage, read-out: Pre-emergence herbicidal activity (percentage phytotoxicity) AVEFA PRE
[5] = post-emergence, 360 h, Rate 250 g/ha, post-emergence, assessed visually 15 DAA, 100%=total damage, 0%=no damage, read-out: Post-emergence herbicidal activity (percentage phytotoxicity) ALOMY POST
[6] = pre-emergence, 480 h, Rate 250 g/ha, pre-emergence, assessed visually 20 DAA, 100%=total damage, 0%=no damage, read-out: Pre-emergence herbicidal activity (percentage phytotoxicity) ALOMY PRE
[7] = post-emergence, 360 h, Rate 250 g/ha, post-emergence, assessed visually 15 DAA, 100%=total damage, 0%=no damage, read-out: Post-emergence herbicidal activity (percentage phytotoxicity) ECHCG POST
[8] = pre-emergence, 480 h, Rate 250 g/ha, pre-emergence, assessed visually 20 DAA, 100%=total damage, 0%=no damage, read-out: Pre-emergence herbicidal activity (percentage phytotoxicity) ECHCG PRE
[9] = post-emergence, 360 h, Rate 250 g/ha, post-emergence, assessed visually 15 DAA, 100%=total damage, 0%=no damage, read-out: Post-emergence herbicidal activity (percentage phytotoxicity) LOLPE POST
[10] = pre-emergence, 480 h, Rate 250 g/ha, pre-emergence, assessed visually 20 DAA, 100%=total damage, 0%=no damage, read-out: Pre-emergence herbicidal activity (percentage phytotoxicity) LOLPE PRE

SMILES	pest or weed control at 250 g/ha (Avena fatua (AVEFA); [3]) [%]	pest or weed control at 250 g/ha (Avena fatua (AVEFA); [4]) [%]	pest or weed control at 250 g/ha [1, 5] [%]	pest or weed control at 250 g/ha [1, 6] [%]	pest or weed control at 250 g/ha [2, 7] [%]	pest or weed control at 250 g/ha [2, 8] [%]	pest or weed control at 250 g/ha (Lolium perenne (LOLPE); [9]) [%]	pest or weed control at 250 g/ha (Lolium perenne (LOLPE); [10]) [%]	other results
Cc1cc(-n2cc(Cl)cn2)cc(C)c1C1C(=O)CC(CC(=O)NC2CC2)C1=O (centres unmarked) [Compound A75]	100	90	100	100	100	100	90	90	–
C#CC(C)(C)NC(=O)CC1CC(=O)C(c2c(C)cc(-c3ncc(Cl)cn3)cc2C)C1=O (centres unmarked) [Compound B343]	–	–	–	–	–	–	–	–	pest or weed control at 250 g/ha (Avena fatua (AVEFA); post-emergence, 360 h, Rate 250 g/ha, post-emergence, visual assessment 15 DAA, 100%=total damage, 0%=no damage, read-out: Post-emergence herbicidal activity (percentage phytotoxicity) AVEFA POST): 100%; pest or weed control at 250 g/ha (Avena fatua (AVEFA); pre-emergence, 480 h, Rate 250 g/ha, pre-emergence, visual assessment 20 DAA, 100%=total damage, 0%=no damage, read-out: Pre-emergence herbicidal activity (percentage phytotoxicity) AVEFA PRE): 90%; pest or weed control at 250 g/ha ([1]; post-emergence, 360 h, Rate 250 g/ha, post-emergence, visual assessment 15 DAA, 100%=total damage, 0%=no damage, read-out: Post-emergence herbicidal activity (percentage phytotoxicity) ALOMY POST): 100%; pest or weed control at 250 g/ha ([1]; pre-emergence, 480 h, Rate 250 g/ha, pre-emergence, visual assessment 20 DAA, 100%=total damage, 0%=no damage, read-out: Pre-emergence herbicidal activity (percentage phytotoxicity) ALOMY PRE): 100%; pest or weed control at 250 g/ha ([2]; post-emergence, 360 h, Rate 250 g/ha, post-emergence, visual assessment 15 DAA, 100%=total damage, 0%=no damage, read-out: Post-emergence herbicidal activity (percentage phytotoxicity) ECHCG POST): 100%; pest or weed control at 250 g/ha ([2]; pre-emergence, 480 h, Rate 250 g/ha, pre-emergence, visual assessment 20 DAA, 100%=total damage, 0%=no damage, read-out: Pre-emergence herbicidal activity (percentage phytotoxicity) ECHCG PRE): 100%; pest or weed control at 250 g/ha (Lolium perenne (LOLPE); post-emergence, 360 h, Rate 250 g/ha, post-emergence, visual assessment 15 DAA, 100%=total damage, 0%=no damage, read-out: Post-emergence herbicidal activity (percentage phytotoxicity) LOLPE POST): 100%; pest or weed control at 250 g/ha (Lolium perenne (LOLPE); pre-emergence, 480 h, Rate 250 g/ha, pre-emergence, visual assessment 20 DAA, 100%=total damage, 0%=no damage, read-out: Pre-emergence herbicidal activity (percentage phytotoxicity) LOLPE PRE): 100%
Cc1cc(-c2ncc(F)cn2)cc(C)c1C1C(=O)CC(CC(=O)NC2CCCC2)C1=O (centres unmarked) [Compound B114]	–	–	–	–	–	–	–	–	pest or weed control at 250 g/ha (Avena fatua (AVEFA); post-emergence, 360 h, 250 g/ha, post-emergence, 15 DAA, visual assessment (100%=total damage, 0%=no damage), read-out: Post-emergence herbicidal activity (percentage phytotoxicity) AVEFA POST): 90%; pest or weed control at 250 g/ha (Avena fatua (AVEFA); pre-emergence, 480 h, 250 g/ha, pre-emergence, 20 DAA, visual assessment (100%=total damage, 0%=no damage), read-out: Pre-emergence herbicidal activity (percentage phytotoxicity) AVEFA PRE): 60%; pest or weed control at 250 g/ha ([1]; post-emergence, 360 h, 250 g/ha, post-emergence, 15 DAA, visual assessment (100%=total damage, 0%=no damage), read-out: Post-emergence herbicidal activity (percentage phytotoxicity) ALOMY POST): 90%; pest or weed control at 250 g/ha ([1]; pre-emergence, 480 h, 250 g/ha, pre-emergence, 20 DAA, visual assessment (100%=total damage, 0%=no damage), read-out: Pre-emergence herbicidal activity (percentage phytotoxicity) ALOMY PRE): 90%; pest or weed control at 250 g/ha ([2]; post-emergence, 360 h, 250 g/ha, post-emergence, 15 DAA, visual assessment (100%=total damage, 0%=no damage), read-out: Post-emergence herbicidal activity (percentage phytotoxicity) ECHCG POST): 100%; pest or weed control at 250 g/ha ([2]; pre-emergence, 480 h, 250 g/ha, pre-emergence, 20 DAA, visual assessment (100%=total damage, 0%=no damage), read-out: Pre-emergence herbicidal activity (percentage phytotoxicity) ECHCG PRE): 100%; pest or weed control at 250 g/ha (Lolium perenne (LOLPE); post-emergence, 360 h, 250 g/ha, post-emergence, 15 DAA, visual assessment (100%=total damage, 0%=no damage), read-out: Post-emergence herbicidal activity (percentage phytotoxicity) LOLPE POST): 90%; pest or weed control at 250 g/ha (Lolium perenne (LOLPE); pre-emergence, 480 h, 250 g/ha, pre-emergence, 20 DAA, visual assessment (100%=total damage, 0%=no damage), read-out: Pre-emergence herbicidal activity (percentage phytotoxicity) LOLPE PRE): 90%
Cc1cc(-c2cnc(Cl)cn2)cc(C)c1C1C(=O)CC(CC(=O)NCc2cccs2)C1=O (centres unmarked) [Compound A148]	100	80	70	70	100	100	90	80	–
